Laboratory results taken from US8420605B2, “Hydrogel compositions” (The University of Strathclyde, priority 2005, dated 2013).
Peptide text beside a SMILES is read from it. * marks the point of attachment. Fmoc = O=C(OCC1c2ccccc2-c2ccccc21)*

Tests used:
[1] = test system: Human dermal fibroblasts; format: cell-based
Excerpt: In order to coarsely test cell viability, a Live/Dead assay was chosen in which two reagents of EthD-1 and Calcine AM were involved. […] With the help of this staining and fluorescence microscope, living and dead cells could be easily visualized therefore viability inside the culture is measured.
For making Fmoc-Phe-Phe-OH peptide solution, 0.0107 gram of Fmoc-Phe-Phe-OH was weighed in a glass vial and sterilized for 30 minutes by an ultraviolet light with bottles of distilled water, filtered NaOH (Sodium Hydroxide, 0.5 M/L), filtered HCl (Hydrochloric Acid, 0.5 M/L), and relevant apparatus (spatulas, pipettes, Vortex). 2 mL of the sterile distilled water was then added into the glass vial of Fmoc-Phe-Phe-OH, and the mixture was vortexed for a few seconds to create a suspension. Afterwards, approximate 100 μL of NaOH was gradually pipetted into the suspension (20 μL each pipetting) and the mixture was vortexed after every addition of the alkaline. […] The basic peptide solution (pH around 10) was finally neutralized to pH 7 by dropwise addition of HCl and pH values were monitored by a pH meter with a micro-probe. […]

[2] = test system: human adult dermal fibroblast; assay: 3D culture inside peptide gels, cell shape; format: cell-based; settings: 10 mM/L gel, cells seeded inside the gel
Procedure: With 10 mM/L Fmoc-Phe-Phe-OH self-assembled hydrogels, human adult dermal fibroblast were also seeded 3 dimensionally (3D culture) inside the peptide gels. […] Despite proliferation, whether ECM components (proteins and saccharides) were synthesized and secreted by these cells is another way to justify cells' reaction to the material. However, viability of the cells is of necessity to maintain a steady ECM secretion or to restore proliferation after possible cell spreading at later time points.

## O=C(N[C@@H](Cc1ccccc1)C(=O)N[C@@H](Cc1ccccc1)C(=O)O)OCC1c2ccccc2-c2ccccc21 [Entry 1, Fmoc-Phe-Phe-OH] (Fmoc-Phe-Phe-OH)
[1]
  cell viability (live/dead staining): majority of cells were shown to be living
[1]; during the first 3 days, 3D culture
  cell spreading in the gel: did not complete spreading
[2]
  cell shape in 3D culture: oval to round cell shape remained for a long term
